Where two headings read alike, the source gives them in different places.

One series deals with KB3-1. The series is described as follows: Cytotoxic activity, MTT test, 72 hours exposure. Conditions: for IC50: KB3-1 cells, 72 hours, MTT test, concentration at which 50% of the cells are alive, read-out: CI50 (μM) after 72 hours KB3-1. In kind it is cell-based, human. The procedure:
(§1) The cytotoxic activity of SQgem was evaluated on two human tumoral cell lines (KB3-1, cancer of the naso-pharynx and MCF-7, breast cancer) by exposure to SQgem for 72 hours, and compared with the activity of gemcitabine.
(§2) The lines were maintained in DMEM medium with 10% foetal calf serum, 2 mM glutamine, 50 mg/l antibiotics, at 37° C., 5% CO2, 95% humidity. The cells were seeded onto a 96 well plate in an amount of 1×10^4/well; after 24 hours, different dilutions of gemcitabine and SQgem particle were added and incubated for 72 hours. Cellular viability was then determined by the MTT test. The results are expressed as CI50, which is the concentration of the molecule at which 50% of the cells are alive.
A general note: Tetrazolium dyes change colour on reduction, which living cells bring about.

The test system of the next series is MCF-7. The series is described as follows: Cytotoxic activity, MTT test, 72 hours exposure. In kind it is cell-based, human. Conditions: concentration at which 50% of the cells are alive, read-out: CI50 (μM) after 72 hours MCF-7. The procedure:
as §1, §2

The nature of series [1]: Surface tension at constant surface area (Wilhemy blade tensometer). The note with it: aqueous solution with 10% ethanol. In kind it is physicochemical. The method, then: The surface tension of an aqueous SQgem solution was measured at constant surface area at different concentrations using a Wilhemy blade tensometer and compared with that of a solution of gemcitabine (Gem) and 4-(N)-stearoylgemcitabine (C18gem) (Myhren F et al, Gemcitabine derivatives, US patent no. 2002/0042391).
To prepare the various dilutions of SQgem and C18gem, it was necessary to start from an ethanolic solution; the percentage of ethanol in the final solution was 10% (the presence of ethanol reduces the surface tension of water from 72 mN/m to about 50 mN/m).

A short description of series [2]: Nanoparticle size by quasi-elastic light diffusion (Coulter N4MD nanosizer). In kind it is physicochemical. The procedure:
The size of the colloidal particles obtained in example 1 were monitored by quasi-elastic light diffusion using a nanosizer (Coulter® N4MD, Coulter Electronics, Hialeah, USA).
The colloidal suspensions were diluted in MilliQ® water so that the number of particles per ml was suitable for the measuring device.

The subject of the next series is two cell lines. The series is described as follows: Cytotoxic activity at different times in the presence and absence of inserts (MTT test). In kind it is cell-based, human. Conditions: 100 μM SQgem nanoparticles, inserts 0.02 μm, n=3. The method, then: The cytotoxic activity of SQgem at different times was also determined by incubating 100 μM SQgem nanoparticles on two cell lines in the presence and absence of inserts (0.02 μm) (MTT test) (n=3).

The mark [3] stands for this setting: concentration in final suspension 1 mg/ml.
Where [4] appears, read: concentration in final suspension 2 mg/ml.
Setting [5] is: concentration in final suspension 4 mg/ml.

As for `CC(C)=CCCC(C)=CCCC(C)=CCCC=C(C)CCC=C(C)CCC(=O)Nc1ccn([C@@H]2O[C@H](CO)[C@@H](O)C2(F)F)c(=O)n1` [SQgem, 4-(N)-squalenoylgemcitabine], the IC50 in the series on KB3-1 amounted to 8.8 ± 4.1 µM; with MCF-7 (MCF-7 cells), 4.8 ± 3.9 µM. Also, in the series with KB3-1 (from CI50 on KB3-1 and MCF-7, 72 hours), the “times more cytotoxic than the gemcitabine molecule” value is “five to seven times more toxic”. Also, the “concentration at which the surface tension is reduced (nanoparticle formation)” value in series [1] came out at 4 µM. In addition, the “Mean hydrodynamic diameter (nm)” value in series [2] (setting [3]) is reported as 126.2 nm; in series [2] (setting [4]), 150.4 nm; in series [2] (setting [5]), 171.3 nm. Moreover, the Polydispersity index in series [2] (setting [3]) was found to be 0.26; in series [2] (setting [4]) it was 0.09; in series [2] (setting [5]) it was 0.08. Also, in the series on two cell lines, the “anti-cancer activity with inserts with respect to cytotoxicity tests in the absence of an insert” value is on record as “not reduced”.
As for 4-(N)-squalenoyl acyclovir [SQACV], in series [2] (setting [3]), the “Mean hydrodynamic diameter (nm)” value is recorded as 217.5 ± 37.9 nm and the Polydispersity index worked out at 0.038.
For `CC(C)=CCCC(C)=CCCC(C)=CCCC=C(C)CCC=C(C)CCC(=O)OC[C@H]1O[C@@H](n2cc(C)c(=O)[nH]c2=O)C[C@@H]1N=[N+]=[N-]` [5′-squalenoyl-zidovudine, 3-azido-5-(5-methyl-2,4-dioxo-3,4-dihydro-2H-pyrimidin-1-yl)-tetrahydro-furan-2-yl-methyl (2S,3S,5R)-4,8,13,17,21-pentamethyl-docosa-4,8,12,16,20-pentaenoate], the “Mean hydrodynamic diameter / size of the nanoparticles” value in series [2] (concentration not given) is on record as 150-170 nm.
As to `CC(C)=CCCC(C)=CCCC(C)=CCCC=C(C)CCC=C(C)CCC(=O)OC[C@@H]1CC[C@H](n2cnc3c(=O)[nH]cnc32)O1` [5′-squalenoyl-didanosine], in series [2] (concentration not given), the “Mean hydrodynamic diameter / size of the nanoparticles” value came out at 152 nm and the Polydispersity index was found to be 0.1.
Turning to `CC(C)=CCCC(C)=CCCC(C)=CCCC=C(C)CCC=C(C)CCC(=O)Nc1ccn([C@@H]2O[C@H](CO)[C@@H](O)[C@@H]2O)c(=O)n1` [SQara-C, 4-(N)-squalenoylcytarabine], in series [2] (setting [3]), the “Mean hydrodynamic diameter (nm)” value was determined as 110.4±34.1 nm and the Polydispersity index stood at 0.168.
For `Nc1ccn([C@@H]2O[C@H](CO)[C@@H](O)C2(F)F)c(=O)n1` [Gemcitabine, 2′,2′-difluoro-2′-deoxycytidine], the IC50 in the series with KB3-1 (Homo sapiens, KB 3-1) is 50.8 ± 49.8 µM; with MCF-7 (Homo sapiens, MCF7, MCF-7 cells) it was 29 ± 13.9 µM.

These data come from patent publication US8044034B2, “Nanoparticle derivatives of gemcitabine” (Centre National de la Recherche Scientifique (C.N.R.S.), priority 2004, dated 2011).
